According to patent US20190328016A1, “SALT COMPOSITION INCLUDING SARCOSINE” (NESTEC S.A., priority 2016, published 2019):

System: trained panellists
Assay: Sensory evaluation of tablets by 11 trained panellists
Type: in vivo
Procedure: Bars coloured black denote a significant difference in a particular taste/sensory characteristic. Unshaded bars denote that there is no significant difference in the characteristic. A positive number represents an increased sensory response of the co-crystal compared to the physical mixture.
Tablets for sensory evaluation were prepared using a Romaco Kilian Styl'One single-stroke tablet press. […] The tablets were prepared with three compressions of 300 ms and an interval of 200 ms.
Each of the panellists received a tray with two tablets presented on plastic plates coded with random 3-digit numbers. The tablets had to be crunched with the front teeth and kept in mouth to dissolve slowly (method 1). Alternatively, tablets could be crunched with the front teeth and chewed constantly in the mouth until complete dissolution occurred (method 2).
Afterwards the panellists were asked to rate the taste of the tablets in respect of the following 12 categories: upfront saltiness (1), overall saltiness (2), sweetness (3), sourness (4), umami (5), friable (6), melting (7), overall persistence (8), saltiness persistence (9), sweetness persistence (10), sourness persistence (11), and tingling (12).

SMILES: N[C@@H](CO)C(=O)O.N[C@@H](CO)C(=O)O.[Cl-].[Na+] [(L-serine)2.sodium chloride co-crystals, (L-serine)2.sodium chloride]
- perceived salty taste versus corresponding physical mix (25 mg sodium chloride per tablet, during and after consumption): significantly more salty
- overall saltiness versus physical mix (11 trained panellists, FIG. 2): superior
- saltiness persistence versus physical mix (11 trained panellists, FIG. 2): superior
- upfront saltiness versus physical mix (11 trained panellists, FIG. 2): superior
